Assay results from US11814392B2, “Chromenopyridine-based compounds and methods of making and use thereof” (Rosalind Franklin University of Medicine and Science, priority 2020, dated 2023).

Molecular target: T1, PMCT (Homo sapiens, UniProt Q86YT5)
T1 construct: expressed in transfected cells; host or cells: HEK293T cells transfected with pcDNA3.1(+)-SLC13A5 using PEI
Assay: PMCT inhibition, citrate transport assay of whole HEK293T cells
Type: cell-based
Conditions: for inhibition at 2.8 µM / inhibition at 28 µM / inhibition at 280 µM / inhibition at 140 µM: HEK-293T; for inhibition at 2.8 µM: read-out: PMCT Inhibition, Inhibitor Concentration 2.8 μM, HEK293T cells; for inhibition at 28 µM: read-out: PMCT Inhibition, Inhibitor Concentration 28 μM, HEK293T cells; for inhibition at 280 µM: read-out: PMCT Inhibition, Inhibitor Concentration 280 μM, HEK293T cells; for dose-dependence of PMCT inhibition / PMCT Inhibition: HEK293T cells; for dose-dependence of PMCT inhibition: even at moderate concentrations (FIG. 1); for inhibition at 140 µM: read-out: PMCT Inhibition, Inhibitor Concentration 140 μM, HEK293T cells; for PMCT Inhibition: Inhibitor Concentration 280 μM, 280 µM

T1 sequence (Q86YT5 whole entry): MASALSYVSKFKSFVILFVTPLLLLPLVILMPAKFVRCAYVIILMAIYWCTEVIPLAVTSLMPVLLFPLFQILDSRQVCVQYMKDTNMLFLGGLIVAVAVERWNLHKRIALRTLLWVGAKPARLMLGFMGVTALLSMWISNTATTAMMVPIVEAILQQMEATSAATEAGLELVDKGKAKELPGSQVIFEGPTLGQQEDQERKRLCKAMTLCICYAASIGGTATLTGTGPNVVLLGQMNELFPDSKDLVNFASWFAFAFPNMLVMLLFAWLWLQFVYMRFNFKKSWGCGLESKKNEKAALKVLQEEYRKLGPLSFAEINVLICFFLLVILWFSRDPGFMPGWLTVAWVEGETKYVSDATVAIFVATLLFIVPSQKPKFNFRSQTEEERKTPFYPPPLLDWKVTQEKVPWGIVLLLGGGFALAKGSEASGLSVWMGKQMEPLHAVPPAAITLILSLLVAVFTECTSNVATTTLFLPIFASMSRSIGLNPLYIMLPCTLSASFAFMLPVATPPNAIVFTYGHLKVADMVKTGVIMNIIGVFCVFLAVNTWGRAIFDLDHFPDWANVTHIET

Row | SMILES | inhibition at 2.8 µM [%] | inhibition at 28 µM [%] | inhibition at 280 µM [%] | dose-dependence of PMCT inhibition | inhibition at 140 µM [%] | PMCT Inhibition [%]
1 | COc1ccc(SC2c3ccc(O)cc3Oc3nc(N)c(C#N)c(N)c32)cc1 (stereo not shown) [Compound 5, 2,4-Diamino-8-hydroxy-5-((4-methoxyphenyl)thio)-5H-chromeno[2,3-b]pyridine-3-carbonitrile] | -12.8 | -4.5 | -3.2 | – | – | –
2 | CSc1ccc(SC2c3ccc(C)cc3Oc3nc(N)c(C#N)c(N)c32)cc1 (stereo not shown) [Compound 9, 2,4-Diamino-8-methyl-5-((4-(methylthio)phenyl)thio)-5H-chromeno[2,3-b]pyridine-3-carbonitrile] | 35.7 | 1.8 | 35.7 | – | – | –
3 | CSc1ccc(SC2c3ccc(O)cc3Oc3nc(N)c(C#N)c(N)c32)cc1 (stereo not shown) [Compound 3, 2,4-Diamino-8-hydroxy-5-((4-(methylthio)phenyl)thio)-5H-chromeno[2,3-b]pyridine-3-carbonitrile] | 6.2 | 9.9 | 58.7 | dose-dependent inhibition | 28.6 | –
4 | COc1ccc2c(c1)Oc1nc(N)c(C#N)c(N)c1C2Sc1ccc(O)cc1 (stereo not shown) [Compound 7, 2,4-Diamino-5-((4-hydroxyphenyl)thio)-8-methoxy-5H-chromeno[2,3-b]pyridine-3-carbonitrile] | 28 | -13.3 | 62.9 | dose-dependent inhibition | 42.5 | 77.7
5 | CCN(CC)c1ccc2c(c1)Oc1nc(N)c(C#N)c(N)c1C2Sc1ccc(SC)cc1 (stereo not shown) [Compound 8, 2,4-diamino-8-(diethylamino)-5-((4-(methylthio)phenyl)thio)-5H-chromeno[2,3-b]pyridine-3-carbonitrile] | -41.5 | -1.5 | 58.4 | – | – | –
6 | CCN(CC)c1ccc2c(c1)Oc1nc(N)c(C#N)c(N)c1C2Sc1ccc(OC)cc1 (stereo not shown) [Compound 4, 2,4-diamino-8-(diethylamino)-5-((4-methoxyphenyl)thio)-5H-chromeno[2,3-b]pyridine-3-carbonitrile] | -23.2 | 28.6 | -8.7 | – | – | –
7 | COc1cc2c(cc1OC)C(Sc1ccc(SC)cc1)c1c(nc(N)c(C#N)c1N)O2 (stereo not shown) [Compound 6, 2,4-diamino-7,8-dimethoxy-5-((4-(methylthio)phenyl)thio)-5H-chromeno[2,3-b]pyridine-3-carbonitrile] | 9.4 | -45.9 | 70.2 | dose-dependent inhibition | 46.8 | 87.4
8 | COc1ccc(SC2c3c(OC)cc(OC)cc3Oc3nc(N)c(C#N)c(N)c32)cc1 (stereo not shown) [Compound 2, 2,4-diamino-6,8-dimethoxy-5-((4-methoxyphenyl)thio)-5H-chromeno[2,3-b]pyridine-3-carbonitrile] | 34.7 | 24 | 50 | dose-dependent inhibition | 48.5 | –
